In patent publication US8946203B2, “Benzodioxane inhibitors of leukotriene production” (Boehringer Ingelheim International GmbH, priority 2012, dated 2015) one finds IC50 data, which are given here for 32 compounds.

Molecules are shown by their SMILES. Read-outs that look alike come from different tables or passages of the source.

The target of test [1] is T1, human LTA4 hydrolase (Homo sapiens, UniProt P09960).
T1 sequence (P09960 1-611): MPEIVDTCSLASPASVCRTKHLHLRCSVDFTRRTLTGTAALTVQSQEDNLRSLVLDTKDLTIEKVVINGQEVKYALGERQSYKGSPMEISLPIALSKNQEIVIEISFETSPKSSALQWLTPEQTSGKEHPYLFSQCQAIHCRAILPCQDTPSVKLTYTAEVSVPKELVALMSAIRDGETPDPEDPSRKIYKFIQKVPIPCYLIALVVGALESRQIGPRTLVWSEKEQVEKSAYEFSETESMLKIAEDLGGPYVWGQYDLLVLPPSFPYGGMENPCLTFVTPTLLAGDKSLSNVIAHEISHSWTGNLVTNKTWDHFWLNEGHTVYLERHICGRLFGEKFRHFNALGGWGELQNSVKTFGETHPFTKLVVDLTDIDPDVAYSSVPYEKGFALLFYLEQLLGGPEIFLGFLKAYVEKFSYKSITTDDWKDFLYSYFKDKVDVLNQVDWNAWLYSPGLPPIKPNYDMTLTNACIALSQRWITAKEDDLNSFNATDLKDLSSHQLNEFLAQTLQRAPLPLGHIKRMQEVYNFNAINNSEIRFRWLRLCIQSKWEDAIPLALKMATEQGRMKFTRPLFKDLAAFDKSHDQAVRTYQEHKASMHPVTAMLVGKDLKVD
Briefly: LTA4H Enzyme assay (cleavage of Arg-AMC, fluorescence). The test is classed as biochemical. The method, boiled down: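 Peptidase activity of human LTA4H (1 nM final) on Arg-AMC (50 μM final), with compound, 1 h at room temperature. Buffer: 50 mM Tris-HCl pH 7.5, 100 mM KCl, 0.5% BSA.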

Test [2] relates to synthesis of LTB4 in human whole blood. Put plainly: human whole blood (HWB) assay, LTB4 production inhibition after calcimycin stimulation. The conditions noted are these: heparinized human whole blood, calcimycin 20 μM, plasma LTB4 by HTRF. The test is classed as cell-based. Here is the method:
The compounds of the invention are additionally tested in a human whole blood (HWB) assay to determine their ability to inhibit the synthesis of LTB4 in a cellular system. Compounds are combined with heparinized human whole blood and incubated for 15 minutes at 37° C. Calcimycin (20 μM final, prepared in phosphate-buffered saline, pH 7.4) is then added and the mixture is incubated for another 30 minutes at 37° C. The samples are centrifuged for 5 min at low speed (1500×g) and the plasma layer is removed. Plasma LTB4 concentrations are then measured using an antibody-based homogenous time-resolved fluorescence method (CisBio, Bedford, Mass.). In general, the preferred potency range (IC50) of compounds in the HWB assay is between 10 nM to 10 μM, the more preferred potency range is 10 nM to 1 μM, and the most preferred potency range is 10 nM to 100 nM.
In general terms: Time-resolved FRET reads energy transfer from a long-lived donor to a nearby acceptor.

Setting [3] is: LTA4H Enzyme 1 nM, Arg-AMC substrate 50 μM, room temperature 1 h, fluorescence, read-out: IC50 values of LTA4H Enzyme assay.

Broadly, the IC50 is the point on the concentration scale where inhibition reaches its midpoint. Take `CCOC(=O)c1nnc2n1CCN(Cc1ccc([C@H]3COc4cccnc4O3)cc1)C2` [Example 240, 7-[(S)-4-(2,3-dihydro-[1,4]dioxino[2,3-b]pyridin-3-yl)-benzyl]-5,6,7,8-tetrahydro-[1,2,4]triazolo[4,3-a]pyrazine-3-carboxylic acid ethyl ester]: the values for the concentration for half-maximal inhibition (IC50) in test [1] (setting [3]) and in test [2] were 0.56 nM and 140 nM, respectively.

Consider `Nc1nc2c(s1)CN(Cc1ccc([C@H]3COc4cccnc4O3)cc1)CC2` [Example 258, 5-[(S)-4-(2,3-Dihydro-[1,4]dioxino[2,3-b]pyridin-3-yl)-benzyl]-4,5,6,7-tetrahydro-thiazolo[5,4-c]pyridin-2-ylamine], for which the IC50 in test [1] (setting [3]) is 0.37 nM; in test [2], 210 nM.

Turning to `CN(Cc1ccc([C@H]2COc3ccccc3O2)cc1)C1CCCCC1` [Example 67, N-{4-[(2S)-2,3-dihydro-1,4-benzodioxin-2-yl]benzyl}-N-methylcyclohexanamine], the IC50 came to 0.61 nM in test [1] (setting [3]) and 346 nM in test [2].

Take `CONC(=O)CC1CCN(Cc2ccc([C@H]3COc4cccnc4O3)cc2)CC1` [Example 260, 2-{1-[(S)-4-(2,3-Dihydro-[1,4]dioxino[2,3-b]pyridin-3-yl)-benzyl]-piperidin-4-yl}-N-methoxy-acetamide]: the half-maximal inhibitory concentration (IC50) in test [1] (setting [3]) stood at 0.57 nM; in test [2], 100 nM.

With `OC1(c2ccccc2)CCN(Cc2ccc([C@H]3COc4cccnc4O3)cc2)CC1` [Example 269, 1-[(S)-4-(2,3-Dihydro-[1,4]dioxino[2,3-b]pyridin-3-yl)-benzyl]-4-phenyl-piperidin-4-ol], the half-maximal inhibitory concentration (IC50) was found to be 0.2 nM in test [1] (setting [3]) and 36 nM in test [2].

With `O=C(CO)N1C[C@@H]2C[C@H]1CN2Cc1ccc([C@H]2COc3cccnc3O2)cc1` [Example 277, 1-{(1S,4S)-5-[(S)-4-(2,3-Dihydro-[1,4]dioxino[2,3-b]pyridin-3-yl)-benzyl]-2,5-diaza-bicyclo[2.2.1]hept-2-yl}-2-hydroxy-ethanone], the IC50 in test [1] (setting [3]) was 0.3 nM; in test [2] it was 65 nM.

Turning to `NC(=O)N1CCN(Cc2ccc([C@H]3COc4cccnc4O3)cc2)CC1` [Example 164, 4-{4-[(3S)-2,3-dihydro[1,4]dioxino[2,3-b]pyridin-3-yl]benzyl}piperazine-1-carboxamide], the IC50 was determined as 0.84 nM in test [1] (setting [3]) and 100 nM in test [2].

Turning to `CC1CCN(Cc2ccc([C@H]3COc4cccnc4O3)cc2)CC1` [Example 137, (3S)-3-{4-[(4-methylpiperidin-1-yl)methyl]phenyl}-2,3-dihydro[1,4]dioxino[2,3-b]pyridine], the IC50 in test [1] (setting [3]) came to 0.26 nM; in test [2], 28 nM.

With `CN1CCCC2(CCN(Cc3ccc([C@H]4COc5ccccc5O4)cc3)CC2)C1=O` [Example 130, 9-[(S)-4-(2,3-Dihydro-benzo[1,4]dioxin-2-yl)-benzyl]-2-methyl-2,9-diaza-spiro[5.5]undecan-1-one], the concentration for half-maximal inhibition (IC50) in test [1] (setting [3]) was found to be 0.51 nM.

As for `O=C1CCCN1Cc1ccc(C2COc3cccnc3O2)cc1` (stereo not shown) [Example 208, 11-[4-(2,3-dihydro-[1,4]dioxino[2,3-b]pyridin-3-yl)-benzyl]-pyrrolidin-2-one], the IC50 in test [1] (setting [3]) was 21.4 nM.

On to `CS(=O)(=O)NC1CCN(Cc2ccc(C3COc4ccccc4O3)cc2)CC1` (racemic) [Example 48, N-{1-[4-(2,3-dihydro-1,4-benzodioxin-2-yl)benzyl]piperidin-4-yl}methanesulfonamide], for which the IC50 in test [1] (setting [3]) was 0.16 nM.

Turning to `c1cncc(CNCc2ccc(C3COc4ccccc4O3)cc2)c1` (racemic) [Example 54, 1-[4-(2,3-dihydro-1,4-benzodioxin-2-yl)phenyl]-N-(pyridin-3-ylmethyl)methanamine], the half-maximal inhibitory concentration (IC50) in test [1] (setting [3]) was found to be 5.93 nM.

As to `c1ccc2c(c1)OCC(c1ccc(CNCC3CC3)cc1)O2` (racemic) [Example 43, 1-cyclopropyl-N-[4-(2,3-dihydro-1,4-benzodioxin-2-yl)benzyl]methanamine], in test [1] (setting [3]), the IC50 turned out to be 4.42 nM.

Regarding `CS(=O)(=O)N1CCC(NCc2ccc([C@H]3COc4cccnc4O3)cc2)CC1` [Example 167, N-{4-[(3S)-2,3-dihydro[1,4]dioxino[2,3-b]pyridin-3-yl]benzyl}-1-(methylsulfonyl)piperidin-4-amine], the IC50 in test [1] (setting [3]) was 0.27 nM.

As for `OC1CCN(Cc2ccc([C@H]3COc4ccccc4O3)cc2)CC1` (single isomer, unassigned) [Example 192], the IC50 in test [1] (setting [3]) turned out to be 0.43 nM.

Turning to `CC[C@@H](C)NCc1ccc(C2COc3ccccc3O2)cc1` (mixture of isomers) [Example 24, (2R)-N-[4-(2,3-dihydro-1,4-benzodioxin-2-yl)benzyl]butan-2-amine], in test [1] (setting [3]), the IC50 was 5.9 nM.

With `CS(=O)(=O)C1CCN(Cc2ccc([C@H]3COc4cccnc4O3)cc2)CC1` [Example 172, (3S)-3-(4-{[4-(methylsulfonyl)piperidin-1-yl]methyl}phenyl)-2,3-dihydro[1,4]dioxin[2,3-b]pyridine], the IC50 in test [1] (setting [3]) came out at 0.53 nM.

For the compound `c1cnc2c(c1)OC[C@H](c1ccc(CNC3CCCC3)cc1)O2` [Example 135, N-{4-[(3S)-2,3-dihydro[1,4]dioxino[2,3-b]pyridin-3-yl]benzyl}cyclopentanamine], the IC50 in test [1] (setting [3]) amounted to 0.47 nM.

Consider `NC(=O)C1CCN(Cc2ccc([C@H]3COc4cccnc4O3)cc2)CC1` [Example 206, 1-{4-[(3S)-2,3-dihydro[1,4]dioxino[2,3-b]pyridin-3-yl]benzyl}piperidine-4-carboxamide], for which, in test [1] (setting [3]), the 50% inhibitory concentration (IC50) was found to be 0.19 nM.

As to `O=C1CCN(Cc2ccc([C@H]3COc4cccnc4O3)cc2)CCN1` [Example 132, 1-{4-[(3S)-2,3-dihydro[1,4]dioxino[2,3-b]pyridin-3-yl]benzyl}-1,4-diazepan-5-one], the IC50 in test [1] (setting [3]) turned out to be 0.91 nM.

Take `OC(C1CCN(Cc2ccc([C@H]3COc4ccccc4O3)cc2)CC1)(C(F)(F)F)C(F)(F)F` [Example 22, 2-(1-{4-[(2S)-2,3-dihydro-1,4-benzodioxin-2-yl]benzyl}piperidin-4-yl)-1,1,1,3,3,3-hexafluoropropan-2-ol]: in test [1] (setting [3]), the concentration for half-maximal inhibition (IC50) is 200 nM.

As to `COC1CCN(Cc2ccc([C@H]3COc4ccccc4O3)cc2)CC1` [Example 98, 1-{4-[(2S)-2,3-dihydro-1,4-benzodioxin-2-yl]benzyl}-4-methoxypiperidine], the half-maximal inhibitory concentration (IC50) in test [1] was 0.61 nM.

For the compound `OCCN(Cc1ccc([C@H]2COc3ccccc3O2)cc1)C1CCCCC1` [Example 80, 2-(cyclohexyl{4-[(2S)-2,3-dihydro-1,4-benzodioxin-2-yl]benzyl}amino)ethanol], the 50% inhibitory concentration (IC50) in test [1] (setting [3]) amounted to 0.71 nM.

As for `O[C@@H]1CCN(Cc2ccc([C@H]3COc4cccnc4O3)cc2)C1` [Example 144, (3R)-1-{4-[(3S)-2,3-dihydro[1,4]dioxino[2,3-b]pyridin-3-yl]benzyl}pyrrolidin-3-ol], in test [1] (setting [3]), the IC50 was determined as 0.14 nM.

Regarding `CNC(=O)C1CCN(Cc2ccc([C@H]3COc4cccnc4O3)cc2)CC1` [Example 152, 1-{4-[(3S)-2,3-dihydro[1,4]dioxino[2,3-b]pyridin-3-yl]benzyl}-N-methylpiperidine-4-carboxamide], the IC50 in test [1] (setting [3]) was 0.17 nM.

As to `N#CC1CN(Cc2ccc(C3COc4ccccc4O3)cc2)C1` (racemic) [Example 46, 1-[4-(2,3-dihydro-1,4-benzodioxin-2-yl)benzyl]azetidine-3-carbonitrile], the IC50 in test [1] (setting [3]) worked out at 24.8 nM.

On to `c1ccc2c(c1)OCC(c1ccc(CN3CCCOCC3)cc1)O2` (racemic) [Example 32, 4-[4-(2,3-dihydro-1,4-benzodioxin-2-yl)benzyl]-1,4-oxazepan], for which, in test [1] (setting [3]), the half-maximal inhibitory concentration (IC50) came to 1.8 nM.

Take `OCCCC1CCN(Cc2ccc(C3COc4ccccc4O3)cc2)CC1` (racemic) [Example 29, 3-{1-[4-(2,3-dihydro-1,4-benzodioxin-2-yl)benzyl]piperidin-4-yl}propan-1-ol]: the IC50 in test [1] (setting [3]) turned out to be 2.04 nM.

With `NCc1ccc(C2COc3cccnc3O2)cc1` (stereo not shown) [Example 210, 4-(2,3-Dihydro-[1,4]dioxino[2,3-b]pyridin-3-yl)-benzylamine], the IC50 in test [1] (setting [3]) was 19 nM.

Regarding `OC1CCCN(Cc2ccc([C@H]3COc4ccccc4O3)cc2)C1` (stereo partly drawn) [Example 78, 1-{4-[(2S)-2,3-dihydro-1,4-benzodioxin-2-yl]benzyl}piperidin-3-ol], the IC50 in test [1] (setting [3]) was 1.4 nM.

Consider `COC1CN(Cc2ccc(C3COc4ccccc4O3)cc2)C1` (racemic) [Example 36, 1-[4-(2,3-dihydro-1,4-benzodioxin-2-yl)benzyl]-3-methoxyazetidine], for which the concentration for half-maximal inhibition (IC50) in test [1] (setting [3]) amounted to 4.45 nM.

As for `CC(C)NCc1ccc([C@H]2COc3ccccc3O2)cc1` [Example 71, N-{4-[(2S)-2,3-dihydro-1,4-benzodioxin-2-yl]benzyl}propan-2-amine], the IC50 in test [1] (setting [3]) is 1.88 nM.
